According to patent US20230382926A1, “COMPOUNDS AND USES THEREOF” (The University of The West Indies, priority 2022, published 2023):

How the values were obtained:
Assay in all cases: Rescue concentration, modified checkerboard MIC adjuvant assay
Assay type in all cases: cell-based
[1] = test system: Streptococcus pneumoniae ATCC 49619; details: S. pneumoniae ATCC 49619
Experimental: (§1) Reference microorganisms as well as clinical strains used to evaluate the antimicrobial adjuvant properties of SP-6azaBIM 125 and SP-6azaBIM 136 are listed in Table 3. Clinical strains of bacteria were kindly provided by the Faculty of Medical Sciences, UWI, St. Augustine, Trinidad. All bacterial cultures were cryopreserved in 30% glycerol/Brain Heart Infusion (BHI) at −80° C. Cultures were revived on BHI agar (Oxoid Ltd, England) and maintained at 4° C. until needed.
(§2) Prior to each experiment, cultures were streaked onto clean BHI agar plates and incubated at 35° C. for 24 hours. Colonies of the respective cultures were selected and inoculated in phosphate buffer saline (pH 7.5) to a 0.5 McFarland turbidity standard (equivalent to 10^8 CFU mL^−1). For inhibitory studies the bacterial suspensions were diluted 1:100 in cation-adjusted Mueller Hinton Broth (ca-MHB) (Oxoid Ltd, England). Fastidious bacteria including Streptococcus pneumoniae, Haemophilus infuenzae and Clostridium difficile were maintained on BHI agar with 5% defibrinated sheep blood and diluted in ca-MHB with 5% defibrinated sheep blood.
(§3) Antibiotic powders used in this study were purchased from Sigma Aldrich Ltd. (WI, USA). Antibiotic stock solutions were made at 50 mg mL^−1 according to Andrews (2001) and working solutions were prepared 24 h before use and stored at 4° C.
(§4) HCl salts of the of the SP-azaBIM test compounds were prepared prior to testing and stored at 4° C. Working preparations of each compound were made to 1 mg/mL in sterile deionised water.
(§5) The antibiotic adjuvant activity of the SPazaBIMs were evaluated in combination with representative antibiotics (representing 13 antibiotic classes) against the 19 pathogens strains listed in Table 3. To assess the adjuvant properties of the SP-azaBIM molecules, a modified checkerboard minimum inhibitory concentration assay was used. A fixed concentration of the respective antibiotic (susceptible breakpoint concentration) was mixed with a twofold dilution series of the test SP-azaBIM (FIG. 1). This was to determine the concentration of SP-azaBIM needed potentiate the antibiotic at a clinically susceptible breakpoint concentration. Antibiotic susceptible breakpoint concentrations for the respective bacteria were determined using Clinical Laboratory Standards Institute (CLSI) criteria M100 ED31.
(§6) In this study, only those antibiotics to which the bacterial was classed as resistant were included in the adjuvant assays. In this assay we recorded the rescue concentration of the SP-BIM for a respective antibiotic. The rescue concentration was defined as the concentration of the adjuvant that reduces the minimum inhibitory concentration (MIC) of an antibiotic to the susceptibility breakpoint.
(§7) Immediately prior to testing, the respective antibiotic and SP-azaBIM was dissolved in sterile deionised water at 20× the required test concentration. Each microtiter well was then inoculated with 180 μl of bacterial inoculum of 10^6 CFU/ml in ca-MHB, and 10 μl each if the antibiotic and SP-azaBIM was added to the plates. These plates were then incubated at 35° C. for 24 h under aerobic conditions. A similar method was followed for the fastidious pathogens except that they were cultured in ca-MHB with 5% sheep blood and 5% CO2.
(§8) Bacterial growth was visually inspected after the incubation period and the rescue concentration of the test SP-azaBIM was determined as the lowest concentration of the compound needed to reduce bacterial growth by 99.99% at the susceptible breakpoint concentration of the antibiotic. For example, CLSI states that Pseudomonas aeruginosa is susceptible to the Imipenem if the MIC is ≤2 μg mL^−1. If the bacteria can tolerate this concentration in vitro, then the bacteria has an intermediate or absolute resistance toward that antibiotic. […]

[2] = test system: Acinetobacter baumannii clinical isolate 9978; details: A. baumannii clinical isolate 9978
Experimental: as §1, §2, §3, §4, §5, §6, §7, §8

[3] = test system: Escherichia coli ATCC 35150; details: E. coli ATCC 35150
Experimental: as §1, §2, §3, §4, §5, §6, §7, §8

[4] = test system: Staphylococcus aureus ATCC BAA-2312; details: S. aureus ATCC BAA-2312
Experimental: as §1, §2, §3, §4, §5, §6, §7, §8

[5] = test system: Pseudomonas aeruginosa MDR 5805; details: P. aeruginosa MDR 5805
Experimental: as §1, §2, §3, §4, §5, §6, §7, §8

[6] = test system: Enterococcus faecalis ATCC 51299; details: E. faecalis ATCC 51299
Experimental: as §1, §2, §3, §4, §5, §6, §7, §8

[7] = test system: Klebsiella pneumoniae ATCC 49472; details: K. pneumoniae ATCC 49472
Experimental: as §1, §2, §3, §4, §5, §6, §7, §8

[8] = test system: Klebsiella pneumoniae ATCC BAA-2814; details: K. pneumoniae ATCC BAA-2814
Experimental: as §1, §2, §3, §4, §5, §6, §7, §8

[9] = test system: Enterobacter cloacae ATCC BAA-1143; details: E. cloacae ATCC BAA-1143
Experimental: as §1, §2, §3, §4, §5, §6, §7, §8

[10] = Amox at susceptible breakpoint 8 μg mL^−1
[11] = Col at susceptible breakpoint 2 μg mL^−1
[12] = Gen at susceptible breakpoint 4 μg mL^−1
[13] = Imi at susceptible breakpoint 2 μg mL^−1
[14] = Mero at susceptible breakpoint 2 μg mL^−1
[15] = Pol B at susceptible breakpoint 2 μg mL^−1
[16] = Amp at susceptible breakpoint 8 μg mL^−1
[17] = Dox at susceptible breakpoint 4 μg mL^−1
[18] = Imi at susceptible breakpoint 1 μg mL^−1
[19] = Tri at susceptible breakpoint 8 μg mL^−1
[20] = Chl at susceptible breakpoint 8 μg mL^−1
[21] = Col at susceptible breakpoint 8 μg mL^−1
[22] = Azi at susceptible breakpoint 16 μg mL^−1
[23] = Ceph at susceptible breakpoint 8 μg mL^−1
[24] = Tet at susceptible breakpoint 4 μg mL^−1

Oc1ccc(C(c2c[nH]c3ncccc23)c2c[nH]c3ncccc23)cc1 [SP-7azaBIM 135, 4-(bis(1H-pyrrolo[2,3-b]pyridin-3-yl)methyl)phenol]
>128 µg/mL: Rescue concentration, Amox (2) ([1]; Amox at susceptible breakpoint 2 μg mL^−1) | Rescue concentration, Ery (0.25) ([1]; Ery at susceptible breakpoint 0.25 μg mL^−1) | Rescue concentration, Imi (0.12) ([1]; Imi at susceptible breakpoint 0.12 μg mL^−1) | Rescue concentration, Cef (8) ([2]; Cef at susceptible breakpoint 8 μg mL^−1) | Rescue concentration, Col (2) [2, 11] | Rescue concentration, Gen (4) [2, 12] | Rescue concentration, Imi (2) [2, 13] | Rescue concentration, Mero (2) [2, 14] | Rescue concentration, Pol B (2) [2, 15] | Rescue concentration, Amp (8) [3, 16] | Rescue concentration, Cip (0.25) ([3]; Cip at susceptible breakpoint 0.25 μg mL^−1) | Rescue concentration, Dox (4) [3, 17] | Rescue concentration, Gen (4) [3, 12] | Rescue concentration, Azi (2) ([4]; Azi at susceptible breakpoint 2 μg mL^−1) | Rescue concentration, Gen (4) [4, 12] | Rescue concentration, Pen (0.12) ([4]; Pen at susceptible breakpoint 0.12 μg mL^−1) | Rescue concentration, Tri (8) [4, 19] | Rescue concentration, Van (2) ([4]; Van at susceptible breakpoint 2 μg mL^−1) | Rescue concentration, Col (2) [5, 11] | Rescue concentration, Gen (4) [5, 12] | Rescue concentration, Imi (2) [5, 13] | Rescue concentration, Mero (2) [5, 14] | Rescue concentration, Pol B (2) [5, 15] | Rescue concentration, Amp (8) [6, 16] | Rescue concentration, Chl (8) [6, 20] | Rescue concentration, Dox (4) [6, 17] | Rescue concentration, Ery (0.5) ([6]; Ery at susceptible breakpoint 0.5 μg mL^−1) | Rescue concentration, Tri (8) [6, 19] | Rescue concentration, Van (4) ([6]; Van at susceptible breakpoint 4 μg mL^−1) | Rescue concentration, Amox (8) [7, 10] | Rescue concentration, Amp (8) [7, 16] | Rescue concentration, Col (8) [7, 21] | Rescue concentration, Imi (1) [7, 18] | Rescue concentration, Mero (1) ([7]; Mero at susceptible breakpoint 1 μg mL^−1) | Rescue concentration, Pol B (8) ([7]; Pol B at susceptible breakpoint 8 μg mL^−1) | Rescue concentration, Amox (8) [8, 10] | Rescue concentration, Amp (8) [8, 16] | Rescue concentration, Aze (4) ([8]; Aze at susceptible breakpoint 4 μg mL^−1) | Rescue concentration, Azi (16) [8, 22] | Rescue concentration, Cef (16) ([8]; Cef at susceptible breakpoint 16 μg mL^−1) | Rescue concentration, Ceph (8) [8, 23] | Rescue concentration, Chl (8) [8, 20] | Rescue concentration, Col (8) [8, 21] | Rescue concentration, Dox (4) [8, 17] | Rescue concentration, Gen (4) [8, 12] | Rescue concentration, Imi (1) [8, 18] | Rescue concentration, Tet (4) [8, 24] | Rescue concentration, Azi (16) [9, 22] | Rescue concentration, Ceph (8) [9, 23] | Rescue concentration, Chl (8) [9, 20] | Rescue concentration, Dox (4) [9, 17] | Rescue concentration, Gen (4) [9, 12] | Rescue concentration, Tet (4) [9, 24]
64 µg/mL: Rescue concentration, Imi (1) [3, 18] | Rescue concentration, Amox (8) [5, 10] | Rescue concentration, Amp (8) [9, 16] | Rescue concentration, Col (8) [9, 21]
32 µg/mL: Rescue concentration, Imi (1) [9, 18]
>127 µg/mL: Rescue concentration, Amox (8) [2, 10]
